# Several values for one entry are separate records, joined by “and”; a condition that tells them apart may be missing. Identical values can stand only once.
# Tests used:
# [1] = system: white blood cells; experiment: Clinical trial, metastatic pancreatic cancer: total white blood cell count; type: in vivo, human; conditions: individual patients, ODSH adjunctive to gemcitabine and nab-paclitaxel
# From the text: Male and non-pregnant, non-lactating, female patients, aged 18 to 75, with histologically confirmed metastatic adenocarcinoma of the pancreas were enrolled in the trial. […] In addition, patients were screened for blood chemistry levels, including serum creatinine levels within normal limits, serum transaminase levels of […] the upper limit of normal, and bilirubin levels of 1.5 times the upper limit of normal […].
# Treatment consisted of a series of 28-day cycles, wherein the last day of one cycle (e.g., day 28, cycle 1) was immediately followed by the first day of the next cycle (e.g., day 1, cycle 2). In each 28-day treatment cycle, patients were dosed at days 1, 8, and 15 (three weeks of medication followed by one week of rest) as follows. First, nab-paclitaxel at 125 mg/m^2 was administered as an intravenous infusion over 30 minutes. […] Nab-paclitaxel and gemcitabine therapy was given as described in the prescribing information for Abraxane® and Gemzar®. See also, Von Hoff et al., 2011, J. Clinical Oncology 29:1-7). […]
# An initial run-in period was conducted in which ten patients were treated with the gemcitabine, nab-paclitaxel, and ODSH regimen described above. After all ten patients had completed at least one 28-day cycle, the data were reviewed and an open-label randomized study initiated, with two arms (ODSH arm and Control arm). In the ODSH arm, the dosing regimen was the same as in the run-in period (gemcitabine, nab-paclitaxel, and ODSH). In the Control arm, patients were given the same gemcitabine and nab-paclitaxel regimen as in the run-in period, but without ODSH.
# Blood was drawn before treatment administration on days 1, 8, and 15 of each 28 day cycle. Platelet counts, total white blood cell counts, and absolute neutrophil counts were performed. Grading of thrombocytopenia and/or neutropenia was performed according to the following standards: […]
# [2] = A2780 xenograft study: body weight; type: in vivo, athymic female mice; conditions: Group 2: 48 mg/kg IV QD + 24 mg/kg SC BID, individual mice, listed as PGX ODSH
# Protocol: ODSH (50 mg/mL stock concentration) was made by Pyramid Laboratories, Inc. and stored at room temperature until use. As described further below, ODSH was administered either intravenously (IV), at a dose of 48 mg/kg and volume of 10 mL/kg, or subcutaneously (SC) at a dose of 24 mg/kg and volume of 5 ml/kg. Carboplatin obtained from a clinical supplier was stored at 4° C. until use. Carboplatin was administered by intraperitoneal injection (IP) at a dose of 80 mg/kg and volume of 10 mL/kg. Saline solution (0.9% NaCl) was used as a vehicle control for ODSH and administered by the same routes and in the same volumes as ODSH.
# Human ovarian cancer cell line A2780 was used in the murine xenograft experiments as follows. Approximately 5×10^6 A2780 cells were used per mouse, injected subcutaneously into the right flank in 0.1 mL of 50% Matrigel/50% media. The study was initiated when tumors reached a size of 90-130 mg. 40 mice were used, 10 per treatment regimen. The mice were normal athymic female mice, aged 6-7 weeks, housed in microisolator cages and maintained under pathogen-free conditions. Tumor and body weights were measured three times per week.
# Four treatment groups were studied.
substance,measurement,setting,value
"substantially 2-O, 3-O desulfated heparin [ODSH]",White Blood Cell Counts,[1]; Cycle 1 Day 1,6.8 ×10^3/μl blood and 7.7 ×10^3/μl blood and 7.3 ×10^3/μl blood and 5.0 ×10^3/μl blood and 4.6 ×10^3/μl blood and 6.5 ×10^3/μl blood and 5.7 ×10^3/μl blood and 8.7 ×10^3/μl blood and 6.0 ×10^3/μl blood and 7.2 ×10^3/μl blood
same,White Blood Cell Counts,[1]; Cycle 1 Day 8,4.4 ×10^3/μl blood and 6.2 ×10^3/μl blood and 2.7 ×10^3/μl blood and 5.3 ×10^3/μl blood and 2.8 ×10^3/μl blood and 5.1 ×10^3/μl blood and 2.3 ×10^3/μl blood and 5.7 ×10^3/μl blood and 3.4 ×10^3/μl blood and 4.1 ×10^3/μl blood
same,White Blood Cell Counts,[1]; Cycle 1 Day 15,4.2 ×10^3/μl blood and 5.1 ×10^3/μl blood and 2.1 ×10^3/μl blood and 6.0 ×10^3/μl blood and 2.0 ×10^3/μl blood and 3.2 ×10^3/μl blood and 2.7 ×10^3/μl blood (2×) and 5.4 ×10^3/μl blood and 1.5 ×10^3/μl blood
same,White Blood Cell Counts,[1]; Cycle 2 Day 1,4.9 ×10^3/μl blood and 7.8 ×10^3/μl blood and 17.8 ×10^3/μl blood and 5.9 ×10^3/μl blood and 6.5 ×10^3/μl blood and 5.7 ×10^3/μl blood and 11.0 ×10^3/μl blood and 3.4 ×10^3/μl blood and 10.8 ×10^3/μl blood
same,White Blood Cell Counts,[1]; Cycle 2 Day 8,10.2 ×10^3/μl blood and 4.5 ×10^3/μl blood and 4.6 ×10^3/μl blood and 2.9 ×10^3/μl blood and 6.4 ×10^3/μl blood
same,White Blood Cell Counts,[1]; Cycle 2 Day 15,3.4 ×10^3/μl blood and 4.3 ×10^3/μl blood and 5.4 ×10^3/μl blood and 2.4 ×10^3/μl blood and 4.4 ×10^3/μl blood
same,White Blood Cell Counts,[1]; Cycle 3 Day 1,6.0 ×10^3/μl blood and 7.6 ×10^3/μl blood and 4.8 ×10^3/μl blood and 5.8 ×10^3/μl blood
same,White Blood Cell Counts,[1]; Cycle 3 Day 8,4.8 ×10^3/μl blood and 2.7 ×10^3/μl blood
same,White Blood Cell Counts,[1]; Cycle 3 Day 15,4.3 ×10^3/μl blood
same,White Blood Cell Counts,[1]; Cycle 4 Day 1,8.5 ×10^3/μl blood
same,White Blood Cell Counts,[1]; Cycle 4 Day 8,6.0 ×10^3/μl blood
same,White Blood Cell Counts,[1]; Screen,8.5 ×10^3/μl blood and 6.7 ×10^3/μl blood (2×) and 6.3 ×10^3/μl blood and 6.5 ×10^3/μl blood and 10.8 ×10^3/μl blood and 10.6 ×10^3/μl blood and 6.0 ×10^3/μl blood and 7.3 ×10^3/μl blood
same,"Individual weights, Day 1 Weight",[2]; Day 1 (baseline),22.1 g and 20.3 g and 21.0 g and 21.8 g and 21.6 g and 21.4 g and 19.8 g (2×) and 20.9 g and 19.7 g
same,Day 4 Weight change,[2]; Day 4,3.6% and 1.5% and −0.5% and −1.8% and 6.5% and 1.9% and −1.0% and 5.6% and 10.0% and −2.5%
same,"Individual weights, Day 4 Weight",[2]; Day 4,22.9 g and 20.6 g and 20.9 g (2×) and 21.4 g and 23.0 g (2×) and 21.8 g and 19.6 g and 19.2 g
same,Day 6 Weight change,[2]; Day 6,5.0% and 1.5% and 1.0% and −1.4% and 13.4% and 2.8% and 2.0% and 7.6% and 8.1% and −2.5%
same,"Individual weights, Day 6 Weight",[2]; Day 6,23.2 g and 20.6 g and 21.2 g and 21.5 g and 24.5 g and 22.0 g and 20.2 g and 21.3 g and 22.6 g and 19.2 g
same,Day 8 Weight change,[2]; Day 8,5.0% and 5.4% and 2.9% and 2.3% and 16.2% and 5.6% (2×) and 12.1% and 6.7% and 2.0%
same,"Individual weights, Day 8 Weight",[2]; Day 8,23.2 g and 21.4 g and 21.6 g and 22.3 g (2×) and 25.1 g and 22.6 g and 20.9 g and 22.2 g and 20.1 g
same,Day 11 Weight change,[2]; Day 11,4.5% and 10.3% and 4.8% (2×) and 4.1% and 17.6% and 8.4% and 5.6% and 14.6% and 6.1%
same,"Individual weights, Day 11 Weight",[2]; Day 11,23.1 g and 22.4 g and 22.0 g and 22.7 g (2×) and 25.4 g and 23.2 g and 20.9 g (2×) and 21.9 g
same,Day 14 Weight change,[2]; Day 14,10.0% and 14.3% and 8.6% and 8.7% and 23.6% and 11.2% (2×) and 11.1% and 17.2% and 9.6%
same,"Individual weights, Day 14 Weight",[2]; Day 14,24.3 g and 23.2 g (2×) and 22.8 g and 23.7 g and 26.7 g and 23.8 g and 22.0 g and 22.9 g and 21.9 g
same,Day 18 Weight change,[2]; Day 18,5.9% and 14.3% and 11.0% and 6.4% and 22.2% and 11.2% and 1.0% and 10.1% and 10.0% and 7.6%
same,"Individual weights, Day 18 Weight",[2]; Day 18,23.4 g and 23.2 g (2×) and 23.3 g and 26.4 g and 23.8 g and 20.0 g and 21.8 g and 23.0 g and 21.2 g
same,Day 21 Weight change,[2]; Day 21,7.2% and 18.2% and 10.5% and 10.1% and 22.2% and 12.6% and 3.0% and 10.6% and 9.6% and 11.2%
same,"Individual weights, Day 21 Weight",[2]; Day 21,23.7 g and 24.0 g (2×) and 23.2 g and 26.4 g and 24.1 g and 20.4 g and 21.9 g (2×) and 22.9 g
same,Day 25 Weight change,[2]; Day 25,19.7% and 31.0% and 9.6% and 18.2% and 14.8%
same,"Individual weights, Day 25 Weight",[2]; Day 25,24.3 g and 28.3 g and 21.7 g and 23.4 g and 24.0 g
same,Day 28 Weight change,[2]; Day 28,23.2% and 32.9% and 15.7% and 20.2% and 15.8%
same,"Individual weights, Day 28 Weight",[2]; Day 28,29.0 g and 28.7 g and 22.9 g and 23.8 g and 24.2 g

# Source: patent US11229664B2, “Treatment of myelosuppression” (priority 2012, dated 2022)
